The supplement of paper PMC10307832

Assays:
Assay in all cases: relative viability (nuclei count vs DMSO), 5 days (fraction); higher = more cells survive
Tosedostat + Luminespib = compound: CC(C)C[C@@H](C(=O)N[C@H](C(=O)OC1CCCC1)c1ccccc1)[C@H](O)C(=O)NO [Tosedostat] + CCNC(=O)c1noc(-c2cc(C(C)C)c(O)cc2O)c1-c1ccc(CN2CCOCC2)cc1 [Luminespib] (partner 0.01 µM)
In short: (§1)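 One day after seeding in 1536-well plates, lung cancer cell lines were dosed by pin tool. Dosing was either single-drug or a fixed anchor-drug dose plus five library-drug doses (not always all listed) in √10 steps. After 5 days, nuclei were stained in one fix-and-stain step and counted on 4× images, and relative viability is the nuclei count of treated wells over that of vehicle wells, given as the median of duplicate plates.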

Tosedostat + Olaparib = compound: CC(C)C[C@@H](C(=O)N[C@H](C(=O)OC1CCCC1)c1ccccc1)[C@H](O)C(=O)NO [Tosedostat] + O=C(c1cc(Cc2n[nH]c(=O)c3ccccc23)ccc1F)N1CCN(C(=O)C2CC2)CC1 [Olaparib] (partner 8 µM)
In short: as §1

[1] = compound: CC1=NN=C(O1)C2=NN=C(C=C2)N3CCC(CC3)OC4=C(C=CC(=C4)F)Cl + CS(=O)(=O)N1CCN(Cc2cc3nc(-c4cccc5[nH]ncc45)nc(N4CCOCC4)c3s2)CC1 [Pictilisib] (partner 1 µM)
In short: as §1

[2] = compound: CC1=NN=C(O1)C2=NN=C(C=C2)N3CCC(CC3)OC4=C(C=CC(=C4)F)Cl + NC(=O)Nc1cc(-c2cccc(F)c2)sc1C(=O)N[C@H]1CCCNC1 [AZD7762] (partner 0.2 µM)
In short: as §1

NCI-H2347 showed a relative viability (Tosedostat + Luminespib; first compound 0.02 µM) of 0.421, a relative viability (Tosedostat + Luminespib; first compound 0.06325 µM) of 0.425 and a relative viability (Tosedostat + Luminespib; first compound 0.2 µM) of 0.594. It also gave a relative viability (Tosedostat + Luminespib; first compound 0.6325 µM) of 0.417, a relative viability (Tosedostat + Luminespib; first compound 2 µM) of 0.474 and a relative viability (Tosedostat + Olaparib; first compound 0.02 µM) of 0.694. It also gave a relative viability (Tosedostat + Olaparib; first compound 0.06325 µM) of 0.618, a relative viability (Tosedostat + Olaparib; first compound 0.2 µM) of 0.539 and a relative viability (Tosedostat + Olaparib; first compound 0.6325 µM) of 0.58. The relative viability (Tosedostat + Olaparib; first compound 2 µM) was 0.484, the relative viability ([1]; first compound 0.253 µM) was 0.024 and the relative viability ([1]; first compound 0.8 µM) was 0.53. It also gave a relative viability ([1]; first compound 2.53 µM) of 0.422, a relative viability ([1]; first compound 8 µM) of 0.753 and a relative viability ([2]; first compound 0.253 µM) of 0.56. For the same cell line, the relative viability ([2]; first compound 0.8 µM) was 0.572, the relative viability ([2]; first compound 2.53 µM) was 0.637 and the relative viability ([2]; first compound 8 µM) was 0.489.
Cell Line LC-2-ad has a relative viability (Tosedostat + Luminespib; first compound 0.02 µM) of 1.2, a relative viability (Tosedostat + Luminespib; first compound 0.06325 µM) of 1.05 and a relative viability (Tosedostat + Luminespib; first compound 0.2 µM) of 0.923. It also gave a relative viability (Tosedostat + Luminespib; first compound 0.6325 µM) of 0.792, a relative viability (Tosedostat + Luminespib; first compound 2 µM) of 0.891 and a relative viability (Tosedostat + Olaparib; first compound 0.02 µM) of 0.774. For the same cell line, the relative viability (Tosedostat + Olaparib; first compound 0.06325 µM) was 0.707, the relative viability (Tosedostat + Olaparib; first compound 0.2 µM) was 0.714 and the relative viability (Tosedostat + Olaparib; first compound 0.6325 µM) was 0.638. The relative viability (Tosedostat + Olaparib; first compound 2 µM) was 0.695, the relative viability ([1]; first compound 0.253 µM) was 0.423 and the relative viability ([1]; first compound 0.8 µM) was 0.416. For the same cell line, the relative viability ([1]; first compound 2.53 µM) was 0.4, the relative viability ([1]; first compound 8 µM) was 0.386 and the relative viability ([2]; first compound 0.253 µM) was 0.394. The relative viability ([2]; first compound 0.8 µM) was 0.391, the relative viability ([2]; first compound 2.53 µM) was 0.398 and the relative viability ([2]; first compound 8 µM) was 0.379.
NCI-H1793 showed a relative viability (Tosedostat + Luminespib; first compound 0.02 µM) of 0.166, a relative viability (Tosedostat + Luminespib; first compound 0.06325 µM) of 0.233 and a relative viability (Tosedostat + Luminespib; first compound 0.2 µM) of 0.322. The relative viability (Tosedostat + Luminespib; first compound 0.6325 µM) was 0.245, the relative viability (Tosedostat + Luminespib; first compound 2 µM) was 0.249 and the relative viability (Tosedostat + Olaparib; first compound 0.02 µM) was 0.884. The relative viability (Tosedostat + Olaparib; first compound 0.06325 µM) was 0.879, the relative viability (Tosedostat + Olaparib; first compound 0.2 µM) was 0.763 and the relative viability (Tosedostat + Olaparib; first compound 0.6325 µM) was 0.698. For the same cell line, the relative viability (Tosedostat + Olaparib; first compound 2 µM) was 0.669, the relative viability ([1]; first compound 0.253 µM) was 0.307 and the relative viability ([1]; first compound 0.8 µM) was 0.312. For the same cell line, the relative viability ([1]; first compound 2.53 µM) was 0.31, the relative viability ([1]; first compound 8 µM) was 0.347 and the relative viability ([2]; first compound 0.253 µM) was 0.411. The relative viability ([2]; first compound 0.8 µM) was 0.482, the relative viability ([2]; first compound 2.53 µM) was 0.756 and the relative viability ([2]; first compound 8 µM) was 0.407.
Work on PC-3 [JPC-3] yielded a relative viability (Tosedostat + Luminespib; first compound 0.02 µM) of 0.735, a relative viability (Tosedostat + Luminespib; first compound 0.06325 µM) of 0.734 and a relative viability (Tosedostat + Luminespib; first compound 0.2 µM) of 0.731. For the same cell line, the relative viability (Tosedostat + Luminespib; first compound 0.6325 µM) was 0.692, the relative viability (Tosedostat + Luminespib; first compound 2 µM) was 0.537 and the relative viability (Tosedostat + Olaparib; first compound 0.02 µM) was 1.11. The relative viability (Tosedostat + Olaparib; first compound 0.06325 µM) was 1.11, the relative viability (Tosedostat + Olaparib; first compound 0.2 µM) was 1 and the relative viability (Tosedostat + Olaparib; first compound 0.6325 µM) was 0.921. The relative viability (Tosedostat + Olaparib; first compound 2 µM) was 0.747, the relative viability ([1]; first compound 0.253 µM) was 0.602 and the relative viability ([1]; first compound 0.8 µM) was 0.677. The relative viability ([1]; first compound 2.53 µM) was 0.84, the relative viability ([1]; first compound 8 µM) was 0.654 and the relative viability ([2]; first compound 0.253 µM) was 0.702. It also gave a relative viability ([2]; first compound 0.8 µM) of 0.602, a relative viability ([2]; first compound 2.53 µM) of 0.728 and a relative viability ([2]; first compound 8 µM) of 0.914.
Work on NCI-H1755 yielded a relative viability (Tosedostat + Luminespib; first compound 0.02 µM) of 0.595, a relative viability (Tosedostat + Luminespib; first compound 0.06325 µM) of 0.512 and a relative viability (Tosedostat + Luminespib; first compound 0.2 µM) of 0.512. The relative viability (Tosedostat + Luminespib; first compound 0.6325 µM) was 0.578, the relative viability (Tosedostat + Luminespib; first compound 2 µM) was 0.415 and the relative viability (Tosedostat + Olaparib; first compound 0.02 µM) was 0.924. It also gave a relative viability (Tosedostat + Olaparib; first compound 0.06325 µM) of 0.851, a relative viability (Tosedostat + Olaparib; first compound 0.2 µM) of 0.827 and a relative viability (Tosedostat + Olaparib; first compound 0.6325 µM) of 0.857. For the same cell line, the relative viability (Tosedostat + Olaparib; first compound 2 µM) was 0.776, the relative viability ([1]; first compound 0.253 µM) was 0.382 and the relative viability ([1]; first compound 0.8 µM) was 0.383. It also gave a relative viability ([1]; first compound 2.53 µM) of 0.398, a relative viability ([1]; first compound 8 µM) of 0.387 and a relative viability ([2]; first compound 0.253 µM) of 0.442. It also gave a relative viability ([2]; first compound 0.8 µM) of 0.428, a relative viability ([2]; first compound 2.53 µM) of 0.465 and a relative viability ([2]; first compound 8 µM) of 0.418.
NCI-H23 was tested, and the relative viability (Tosedostat + Luminespib; first compound 0.02 µM) was 0.233, the relative viability (Tosedostat + Luminespib; first compound 0.06325 µM) was 0.203 and the relative viability (Tosedostat + Luminespib; first compound 0.2 µM) was 0.22. The relative viability (Tosedostat + Luminespib; first compound 0.6325 µM) was 0.237, the relative viability (Tosedostat + Luminespib; first compound 2 µM) was 0.207 and the relative viability (Tosedostat + Olaparib; first compound 0.02 µM) was 0.323. It also gave a relative viability (Tosedostat + Olaparib; first compound 0.06325 µM) of 0.238, a relative viability (Tosedostat + Olaparib; first compound 0.2 µM) of 0.294 and a relative viability (Tosedostat + Olaparib; first compound 0.6325 µM) of 0.252. It also gave a relative viability (Tosedostat + Olaparib; first compound 2 µM) of 0.191, a relative viability ([1]; first compound 0.253 µM) of 0.466 and a relative viability ([1]; first compound 2.53 µM) of 0.527. It also gave a relative viability ([1]; first compound 8 µM) of 0.463, a relative viability ([2]; first compound 0.253 µM) of 0.191 and a relative viability ([2]; first compound 0.8 µM) of 0.192. It also gave a relative viability ([2]; first compound 2.53 µM) of 0.288 and a relative viability ([2]; first compound 8 µM) of 0.206.
NCI-H1915 showed a relative viability (Tosedostat + Luminespib; first compound 0.02 µM) of 0.864, a relative viability (Tosedostat + Luminespib; first compound 0.06325 µM) of 0.79 and a relative viability (Tosedostat + Luminespib; first compound 0.2 µM) of 0.814. For the same cell line, the relative viability (Tosedostat + Luminespib; first compound 0.6325 µM) was 0.803, the relative viability (Tosedostat + Luminespib; first compound 2 µM) was 0.608 and the relative viability (Tosedostat + Olaparib; first compound 0.02 µM) was 0.281. For the same cell line, the relative viability (Tosedostat + Olaparib; first compound 0.06325 µM) was 0.234, the relative viability (Tosedostat + Olaparib; first compound 0.2 µM) was 0.244 and the relative viability (Tosedostat + Olaparib; first compound 0.6325 µM) was 0.203. For the same cell line, the relative viability (Tosedostat + Olaparib; first compound 2 µM) was 0.236, the relative viability ([1]; first compound 0.253 µM) was 0.763 and the relative viability ([1]; first compound 0.8 µM) was 0.586. For the same cell line, the relative viability ([1]; first compound 2.53 µM) was 0.698, the relative viability ([1]; first compound 8 µM) was 0.563 and the relative viability ([2]; first compound 0.253 µM) was 0.501. The relative viability ([2]; first compound 0.8 µM) was 0.276, the relative viability ([2]; first compound 2.53 µM) was 0.464 and the relative viability ([2]; first compound 8 µM) was 0.381.
NCI-H2405 gave a relative viability (Tosedostat + Luminespib; first compound 0.02 µM) of 0.8, a relative viability (Tosedostat + Luminespib; first compound 0.06325 µM) of 0.809 and a relative viability (Tosedostat + Luminespib; first compound 0.2 µM) of 0.838. For the same cell line, the relative viability (Tosedostat + Luminespib; first compound 0.6325 µM) was 0.786, the relative viability (Tosedostat + Luminespib; first compound 2 µM) was 0.79 and the relative viability (Tosedostat + Olaparib; first compound 0.02 µM) was 0.972. The relative viability (Tosedostat + Olaparib; first compound 0.06325 µM) was 0.902, the relative viability (Tosedostat + Olaparib; first compound 0.2 µM) was 0.856 and the relative viability (Tosedostat + Olaparib; first compound 0.6325 µM) was 0.777. The relative viability (Tosedostat + Olaparib; first compound 2 µM) was 0.697, the relative viability ([1]; first compound 0.253 µM) was 0.401 and the relative viability ([1]; first compound 0.8 µM) was 0.523. It also gave a relative viability ([1]; first compound 2.53 µM) of 0.4, a relative viability ([1]; first compound 8 µM) of 0.385 and a relative viability ([2]; first compound 0.253 µM) of 0.684. The relative viability ([2]; first compound 0.8 µM) was 0.684, the relative viability ([2]; first compound 2.53 µM) was 0.627 and the relative viability ([2]; first compound 8 µM) was 0.654.
EMC-BAC-2 gave a relative viability (Tosedostat + Luminespib; first compound 0.02 µM) of 1.26, a relative viability (Tosedostat + Luminespib; first compound 0.06325 µM) of 1.06 and a relative viability (Tosedostat + Luminespib; first compound 0.2 µM) of 1.17. The relative viability (Tosedostat + Luminespib; first compound 0.6325 µM) was 1.15, the relative viability (Tosedostat + Luminespib; first compound 2 µM) was 0.986 and the relative viability (Tosedostat + Olaparib; first compound 0.02 µM) was 0.517. For the same cell line, the relative viability (Tosedostat + Olaparib; first compound 0.06325 µM) was 0.41, the relative viability (Tosedostat + Olaparib; first compound 0.2 µM) was 0.459 and the relative viability (Tosedostat + Olaparib; first compound 0.6325 µM) was 0.428. The relative viability (Tosedostat + Olaparib; first compound 2 µM) was 0.378, the relative viability ([1]; first compound 0.253 µM) was 0.534 and the relative viability ([1]; first compound 0.8 µM) was 0.531. For the same cell line, the relative viability ([1]; first compound 2.53 µM) was 0.572, the relative viability ([1]; first compound 8 µM) was 0.454 and the relative viability ([2]; first compound 0.253 µM) was 1.07. The relative viability ([2]; first compound 0.8 µM) was 0.929, the relative viability ([2]; first compound 2.53 µM) was 1.1 and the relative viability ([2]; first compound 8 µM) was 1.03.
